From the NIST ThermoML archive (doi:10.1016/j.jct.2017.06.001)
Numbers after ± are expanded uncertainties.

Test: xn = mol fraction of the nth substance listed
Conditions: 100 kPa, Liquid, Vibrating tube method

## OCCCCCO [1,5-pentanediol] + O
318.15 K, x1 = 0.9496
  mass density: 975.8 ± 2.2 kg/m3
318.15 K, x1 = 1
  mass density: 974.9 ± 2.1 kg/m3
323.15 K, x1 = 0.005
  mass density: 987.42 ± 0.52 kg/m3
323.15 K, x1 = 0.0101
  mass density: 987.12 ± 1 kg/m3
323.15 K, x1 = 0.0196
  mass density: 986.93 ± 1 kg/m3
323.15 K, x1 = 0.0251
  mass density: 987.06 ± 1 kg/m3
323.15 K, x1 = 0.0304
  mass density: 987.26 ± 1 kg/m3
323.15 K, x1 = 0.05
  mass density: 987.48 ± 1 kg/m3
323.15 K, x1 = 0.0769
  mass density: 987.42 ± 1 kg/m3
323.15 K, x1 = 0.1002
  mass density: 987.52 ± 1.1 kg/m3
323.15 K, x1 = 0.1438
  mass density: 987.17 ± 1.1 kg/m3
323.15 K, x1 = 0.1845
  mass density: 986.36 ± 1.1 kg/m3
323.15 K, x1 = 0.2503
  mass density: 985.12 ± 1.2 kg/m3
323.15 K, x1 = 0.3
  mass density: 983.93 ± 1.2 kg/m3
323.15 K, x1 = 0.3343
  mass density: 983.17 ± 1.3 kg/m3
323.15 K, x1 = 0.4171
  mass density: 981.65 ± 1.4 kg/m3
323.15 K, x1 = 0.454
  mass density: 980.83 ± 1.4 kg/m3
323.15 K, x1 = 0.5003
  mass density: 980 ± 1.5 kg/m3
323.15 K, x1 = 0.5362
  mass density: 979.3 ± 1.5 kg/m3
323.15 K, x1 = 0.6177
  mass density: 978 ± 1.7 kg/m3
323.15 K, x1 = 0.6478
  mass density: 977.5 ± 1.7 kg/m3
323.15 K, x1 = 0.7025
  mass density: 976.7 ± 1.8 kg/m3
323.15 K, x1 = 0.7504
  mass density: 976.1 ± 1.9 kg/m3
323.15 K, x1 = 0.7927
  mass density: 975.4 ± 2 kg/m3
323.15 K, x1 = 0.8605
  mass density: 974.4 ± 2.1 kg/m3
323.15 K, x1 = 0.9004
  mass density: 973.7 ± 2.2 kg/m3
323.15 K, x1 = 0.9496
  mass density: 972.8 ± 2.2 kg/m3
323.15 K, x1 = 1
  mass density: 971.9 ± 2.1 kg/m3
328.15 K, x1 = 0.005
  mass density: 985.03 ± 0.52 kg/m3
328.15 K, x1 = 0.0101
  mass density: 984.7 ± 1 kg/m3
328.15 K, x1 = 0.0196
  mass density: 984.4 ± 1 kg/m3
328.15 K, x1 = 0.0251
  mass density: 984.49 ± 1 kg/m3
328.15 K, x1 = 0.0304
  mass density: 984.6 ± 1 kg/m3
328.15 K, x1 = 0.05
  mass density: 984.62 ± 1 kg/m3
328.15 K, x1 = 0.0769
  mass density: 984.36 ± 1 kg/m3
328.15 K, x1 = 0.1002
  mass density: 984.33 ± 1 kg/m3
328.15 K, x1 = 0.1438
  mass density: 983.84 ± 1.1 kg/m3
328.15 K, x1 = 0.1845
  mass density: 982.94 ± 1.1 kg/m3
328.15 K, x1 = 0.2503
  mass density: 981.66 ± 1.2 kg/m3
328.15 K, x1 = 0.3
  mass density: 980.46 ± 1.2 kg/m3
328.15 K, x1 = 0.3343
  mass density: 979.7 ± 1.2 kg/m3
328.15 K, x1 = 0.4171
  mass density: 978.26 ± 1.4 kg/m3
328.15 K, x1 = 0.454
  mass density: 977.43 ± 1.4 kg/m3
328.15 K, x1 = 0.5003
  mass density: 976.6 ± 1.5 kg/m3
328.15 K, x1 = 0.5362
  mass density: 976 ± 1.5 kg/m3
328.15 K, x1 = 0.6177
  mass density: 974.8 ± 1.7 kg/m3
328.15 K, x1 = 0.6478
  mass density: 974.3 ± 1.7 kg/m3
328.15 K, x1 = 0.7025
  mass density: 973.6 ± 1.8 kg/m3
328.15 K, x1 = 0.7504
  mass density: 972.9 ± 1.9 kg/m3
328.15 K, x1 = 0.7927
  mass density: 972.3 ± 2 kg/m3
328.15 K, x1 = 0.8605
  mass density: 971.3 ± 2.1 kg/m3
328.15 K, x1 = 0.9004
  mass density: 970.7 ± 2.2 kg/m3
328.15 K, x1 = 0.9496
  mass density: 969.9 ± 2.2 kg/m3
328.15 K, x1 = 1
  mass density: 969 ± 2.1 kg/m3
333.15 K, x1 = 0.005
  mass density: 982.48 ± 0.52 kg/m3
333.15 K, x1 = 0.0101
  mass density: 982.09 ± 1 kg/m3
333.15 K, x1 = 0.0196
  mass density: 981.69 ± 1 kg/m3
333.15 K, x1 = 0.0251
  mass density: 981.7 ± 1 kg/m3
333.15 K, x1 = 0.0304
  mass density: 981.74 ± 1 kg/m3
333.15 K, x1 = 0.05
  mass density: 981.63 ± 1 kg/m3
333.15 K, x1 = 0.0769
  mass density: 981.19 ± 1 kg/m3
333.15 K, x1 = 0.1002
  mass density: 981.04 ± 1 kg/m3
333.15 K, x1 = 0.1438
  mass density: 980.43 ± 1.1 kg/m3
333.15 K, x1 = 0.1845
  mass density: 979.44 ± 1.1 kg/m3
333.15 K, x1 = 0.2503
  mass density: 978.15 ± 1.2 kg/m3
333.15 K, x1 = 0.3
  mass density: 976.99 ± 1.2 kg/m3
333.15 K, x1 = 0.3343
  mass density: 976.21 ± 1.2 kg/m3
333.15 K, x1 = 0.4171
  mass density: 974.8 ± 1.4 kg/m3
333.15 K, x1 = 0.454
  mass density: 973.98 ± 1.4 kg/m3
333.15 K, x1 = 0.5003
  mass density: 973.2 ± 1.5 kg/m3
333.15 K, x1 = 0.5362
  mass density: 972.6 ± 1.5 kg/m3
333.15 K, x1 = 0.6177
  mass density: 971.5 ± 1.7 kg/m3
333.15 K, x1 = 0.6478
  mass density: 971 ± 1.7 kg/m3
333.15 K, x1 = 0.7025
  mass density: 970.3 ± 1.8 kg/m3
333.15 K, x1 = 0.7504
  mass density: 969.7 ± 1.9 kg/m3
333.15 K, x1 = 0.7927
  mass density: 969.1 ± 2 kg/m3
333.15 K, x1 = 0.8605
  mass density: 968.1 ± 2.1 kg/m3
333.15 K, x1 = 0.9004
  mass density: 967.6 ± 2.2 kg/m3
333.15 K, x1 = 0.9496
  mass density: 966.7 ± 2.2 kg/m3
333.15 K, x1 = 1
  mass density: 965.9 ± 2.1 kg/m3
